According to US8507538B2, “Selective heterocyclic sphingosine 1 phosphate receptor modulators” (Receptos, Inc., priority 2009, dated 2013):
pEC50: −log10 of the molar value. Where a name gives a salt, the structure may show the parent alone.

These molecules were tested against S1P1/EDG1 (Homo sapiens, UniProt P21453) (assay: S1P1 CRE-bla CHOK1 reporter assay (inhibition of Forskolin induced cAMP)). Conditions: agonist activity range, Table 2; read-out: S1P1 ACTIVITY.
Type: cell-based
Procedure, shortened: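 Stable CRE-bla CHO-K1 clone expressing human S1P1, serum-starved (0.5% stripped serum) 18 h, then treated with compound (10-point curve) plus 2 μM forskolin for 4 h at 37 °C. β-lactamase FRET ratio (458/522 nm) read after 2 h substrate loading; EC50 for inhibition of forskolin-induced cAMP by non-linear regression.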

Sequence of S1P1/EDG1 (P21453 whole entry): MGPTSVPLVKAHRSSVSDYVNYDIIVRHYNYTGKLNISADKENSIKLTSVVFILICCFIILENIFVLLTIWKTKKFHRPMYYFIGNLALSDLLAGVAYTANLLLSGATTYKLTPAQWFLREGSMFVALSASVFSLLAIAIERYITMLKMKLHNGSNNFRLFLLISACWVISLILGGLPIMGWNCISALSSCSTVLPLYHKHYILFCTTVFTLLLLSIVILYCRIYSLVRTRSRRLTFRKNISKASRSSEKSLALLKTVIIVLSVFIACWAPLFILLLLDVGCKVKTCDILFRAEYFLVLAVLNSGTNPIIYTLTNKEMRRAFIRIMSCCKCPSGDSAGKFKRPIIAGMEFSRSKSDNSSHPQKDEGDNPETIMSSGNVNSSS

CNS(=O)(=O)CCNC1CCc2c(-c3cnc(-c4ccc(OC(C)C)c(C#N)c4)s3)cccc21 (stereo not drawn) [Compound 219] and CCS(=O)(=O)N[C@H]1CCc2c(-c3cnc(-c4ccc(OC(C)C)c(C#N)c4)s3)cccc21 [Compound 113] fall in the same range of pEC50: 9.30 to 10.30 for the first, 9.30 to 10.30 for the second.

CC(=O)N[C@@H]1CCc2c(-c3nnc(-c4ccc(OC(C)C)c(C#N)c4)s3)cccc21 [Compound 15, (R)-N-(4-(5-(3-cyano-4-isopropoxyphenyl)-1,3,4-thiadiazol-2-yl)-2,3-dihydro-1H-inden-1-yl)acetamide] and CC(C)Oc1ccc(-c2nnc(-c3cccc4c3CC[C@@H]4NCC(=O)O)s2)cc1C#N [Compound 26, (S)-2-((4-(5-(3-cyano-4-isopropoxyphenyl)-1,3,4-thiadiazol-2-yl)-2,3-dihydro-1H-inden-1-yl)amino)acetic acid] fall in the same range of pEC50: 9.30 to 10.30 for the first, 9.30 to 10.30 for the second.

CC(C)Oc1ccc(-c2ncc(-c3cccc4c3CC[C@@H]4NS(=O)(=O)CCN3CCCC3)s2)cc1C#N [Compound 129] and CC(C)Oc1ccc(-c2ncc(-c3cccc4c3CC[C@@H]4NS(=O)(=O)CCN3CCC(O)CC3)s2)cc1C#N [Compound 145] cannot be ordered by pEC50: under 8.30 for the first, under 8.30 for the second.

First: CC(C)Oc1ccc(-c2ncc(-c3cccc4c3CC[C@@H]4NCC(=O)N3CCNCC3)s2)cc1C#N [Compound 108]
Second: CC(C)Oc1ccc(-c2ncc(-c3cccc4c3CC[C@@H]4NCC(=O)N3CC[C@H](O)C3)s2)cc1C#N [Compound 103]
The pEC50 of the first is lower: under 8.30 for the first, 9.30 to 10.30 for the second.

Compared with CC(C)Oc1ccc(-c2ncc(-c3cccc4c3CC[C@@H]4NC(=O)N3CC[C@@H](N)C3)s2)cc1C#N [Compound 181], CC(C)Oc1ccc(-c2ncc(-c3cccc4c3CC[C@@H]4NC(=O)N3CC[C@H](O)C3)s2)cc1C#N [Compound 177] is higher in pEC50: under 8.30 for the first, 9.30 to 10.30 for the second.

First: CC(C)Oc1ccc(-c2ncc(-c3cccc4c3CC[C@@H]4NCC(=O)N(C)C)s2)cc1C#N [Compound 98]
Second: CC(C)Oc1ccc(-c2ncc(-c3cccc4c3CC[C@@H]4NCC(=O)O)s2)cc1C#N [Compound 97, (S)-2-((4-(2-(3-cyano-4-isopropoxyphenyl)thiazol-5-yl)-2,3-dihydro-1H-inden-1-yl)amino)acetic acid]
The pEC50 of the first is lower: 8.30 to 9.30 for the first, 9.30 to 10.30 for the second.

CC(C)Oc1ccc(-c2nnc(-c3cccc4c3CC[C@@H]4O)s2)cc1C#N [Compound 1, (S)-5-(5-(1-hydroxy-2,3-dihydro-1H-inden-4-yl)-1,3,4-thiadiazol-2-yl)-2-isopropoxybenzonitrile] and CC(C)Oc1ccc(-c2nnc(-c3cccc4c3CCC4NCCO)s2)cc1C#N (stereo in doubt) [Compound 17, (R)-5-(5-(1-((2-hydroxyethyl)amino)-2,3-dihydro-1H-inden-4-yl)-1,3,4-thiadiazol-2-yl)-2-isopropoxybenzonitrile] fall in the same range of pEC50: 9.30 to 10.30 for the first, 9.30 to 10.30 for the second.

First: CC(C)Oc1ccc(-c2nnc(-c3cccc4c3CC[C@@H]4NS(C)(=O)=O)s2)cc1C#N [Compound 33, (S)-N-(4-(5-(3-cyano-4-isopropoxyphenyl)-1,3,4-thiadiazol-2-yl)-2,3-dihydro-1H-inden-1-yl)methanesulfonamide]
Second: CC(C)Oc1ccc(-c2nnc(-c3cccc4c3CC[C@@H]4NS(=O)(=O)CC(N)=O)s2)cc1C#N [Compound 44]
The pEC50 of the first is lower: 9.30 to 10.30 for the first, over 10.30 for the second. The second is the more potent here.

COC(=O)CN[C@H]1CCc2c(-c3cnc(-c4ccc(OC(C)C)c(C#N)c4)s3)cccc21 [Compound 99, (S)-methyl 2-((4-(2-(3-cyano-4-isopropoxyphenyl)thiazol-5-yl)-2,3-dihydro-1H-inden-1-yl)amino)acetate] and CC(C)Oc1ccc(-c2ncc(-c3cccc4c3CC[C@@H]4NC(=O)CN)s2)cc1C#N [Compound 78] fall in the same range of pEC50: 8.30 to 9.30 for the first, 8.30 to 9.30 for the second.

CC(C)Oc1ccc(-c2ncc(-c3cccc4c3CC[C@@H]4NC(=O)N3CCC[C@H](O)C3)s2)cc1C#N [Compound 196] and CC(C)Oc1ccc(-c2ncc(-c3cccc4c3CC[C@@H]4NS(=O)(=O)CCN3CCCC(O)C3)s2)cc1C#N (stereo in doubt) [Compound 141, N-((S)-4-(2-(3-cyano-4-isopropoxyphenyl)thiazol-5-yl)-2,3-dihydro-1H-inden-1-yl)-2-((R)-3-hydroxypiperidin-1-yl)ethanesulfonamide] fall in the same range of pEC50: 8.30 to 9.30 for the first, 8.30 to 9.30 for the second.

CC(C)Oc1ccc(-c2ncc(-c3cccc4c3CCC4NS(=O)(=O)CC(=O)N3CCOCC3)s2)cc1C#N (stereo in doubt) [Compound 162, (R)—N-(4-(2-(3-cyano-4-isopropoxyphenyl)thiazol-5-yl)-2,3-dihydro-1H-inden-1-yl)-2-morpholino-2-oxoethanesulfonamide] and CC(C)Oc1ccc(-c2ncc(-c3cccc4c3CC[C@@H]4NS(=O)(=O)CC(=O)O)s2)cc1C#N [Compound 159, (S)-2-(N-(4-(2-(3-cyano-4-isopropoxyphenyl)thiazol-5-yl)-2,3-dihydro-1H-inden-1-yl)sulfamoyl)acetic acid] fall in the same range of pEC50: 9.30 to 10.30 for the first, 9.30 to 10.30 for the second.

CC(C)Oc1ccc(-c2ncc(-c3cccc4c3CCC4NCc3ncc[nH]3)s2)cc1C#N (stereo in doubt) [Compound 109, (R)-5-(5-(1-(((1H-imidazol-2-yl)methyl)amino)-2,3-dihydro-1H-inden-4-yl)thiazol-2-yl)-2-isopropoxybenzonitrile] and CC(C)Oc1ccc(-c2ncc(-c3cccc4c3CC[C@@H]4NS(=O)(=O)CCO)s2)cc1C#N [Compound 165, (S)-N-(4-(2-(3-cyano-4-isopropoxyphenyl)thiazol-5-yl)-2,3-dihydro-1H-inden-1-yl)-2-hydroxyethanesulfonamide] fall in the same range of pEC50: 8.30 to 9.30 for the first, 8.30 to 9.30 for the second.

Compared with CC(C)Oc1ccc(-c2nnc(-c3cccc4c3CCC4NC(=O)N3CC[C@H](N(C)C)C3)s2)cc1C#N (stereo in doubt) [Compound 57, (S)-N-((R)-4-(5-(3-cyano-4-isopropoxyphenyl)-1,3,4-thiadiazol-2-yl)-2,3-dihydro-1H-inden-1-yl)-3-(dimethylamino)pyrrolidine-1-carboxamide], CC(C)Oc1ccc(-c2nnc(-c3cccc4c3CC[C@@H]4NC(=O)N3CC(O)C3)s2)cc1C#N [Compound 65] is higher in pEC50: 8.30 to 9.30 for the first, 9.30 to 10.30 for the second. The second is the more potent here.

Compared with CC(C)Oc1ccc(-c2ncc(-c3cccc4c3CC[C@@H]4NC(=O)CN3CCCC3)s2)cc1C#N [Compound 85], CC(C)Oc1ccc(-c2ncc(-c3cccc4c3CC[C@@H]4NC(=O)N3CCC[C@H](O)C3)s2)cc1C#N [Compound 197] is higher in pEC50: under 8.30 for the first, 8.30 to 9.30 for the second.

CC(C)Oc1ccc(-c2ncc(-c3cccc4c3CC[C@@H]4NS(=O)(=O)CCN3CCC(O)CC3)s2)cc1C#N [Compound 146] and CC(C)Oc1ccc(-c2nnc(-c3cccc4c3CC[C@H]4NS(=O)(=O)CCN3CC[C@@H](O)C3)s2)cc1C#N (stereo in doubt) [Compound 38, N-((R)-4-(5-(3-cyano-4-isopropoxyphenyl)-1,3,4-thiadiazol-2-yl)-2,3-dihydro-1H -inden-1-yl)-2-((R)-3-hydroxypyrrolidin-1-yl)ethanesulfonamide] fall in the same range of pEC50: 8.30 to 9.30 for the first, 8.30 to 9.30 for the second.

First: CC(C)Oc1ccc(-c2nnc(-c3cccc4c3CC[C@@H]4NC(=O)N3CCC(O)CC3)s2)cc1C#N [Compound 62]
Second: CC(C)Oc1ccc(-c2nnc(-c3cccc4c3CCC4NCC(=O)N(C)C)s2)cc1C#N (stereo in doubt) [Compound 22, (R)-2-((4-(5-(3-cyano-4-isopropoxyphenyl)-1,3,4-thiadiazol-2-yl)-2,3-dihydro-1H-inden-1-yl)amino)-N,N-dimethylacetamide hydrochloride]
The pEC50 of the first is lower: 8.30 to 9.30 for the first, 9.30 to 10.30 for the second. The second is the more potent here.

CC(C)Oc1ccc(-c2ncc(-c3cccc4c3CC[C@@H]4NC(=O)[C@H](N)CO)s2)cc1C#N [Compound 79] showed a pEC50 of 9.30 to 10.30.
